According to patent US6914045B2, “Glycopeptide antibiotics” (Wyeth Holdings Corporation, priority 2001, dated 2005):
In brackets after ≈: the same amount, converted by molar mass.

Columns and labels:
Assay in all cases: in vitro antibacterial evaluation, MIC by broth dilution
Format in all cases: cell-based
Escherichia coli = conditions: 18 hours at 35° C.
Staphylococcus sp. = conditions: broth dilution, 18 hours at 35° C.
Method in brief: (§1)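 Following National Committee for Clinical Laboratory Standards recommendations (M7-A2), susceptibility was measured by dilution in Muller-Hinton II […]. Bacteria were seeded at 5×10^5 CFU/mL against compound concentrations from 64 down to 0.06 μg/mL.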

Enterococcus sp. = conditions: broth dilution, 18 hours at 35° C.
Method in brief: as §1

Streptococcus sp. = conditions: broth dilution, 18 hours at 35° C.
Method in brief: as §1

MIC Escherichia coli (ATCC 25922) (Escherichia coli): 16 µg/mL (≈ 11 µM) | MIC Escherichia coli (GC 4559) (Escherichia coli): 16 µg/mL (≈ 11 µM) | MIC Escherichia coli (GC 4560) (Escherichia coli): 2 µg/mL (≈ 1.37 µM) | MIC Coagulase Negative Staphylococcus (GC 4547) (Staphylococcus sp.): 1 µg/mL (≈ 0.685 µM) | MIC Coagulase Negative Staphylococcus (GC 4548) (Staphylococcus sp.): 1 µg/mL (≈ 0.685 µM) | MIC Coagulase Negative Staphylococcus (GC 4549) (Staphylococcus sp.): 1 µg/mL (≈ 0.685 µM) | MIC Coagulase Negative Staphylococcus (GC 4551) (Staphylococcus sp.): 2 µg/mL (≈ 1.37 µM) | MIC Coagulase Negative Staphylococcus (GC 6257) (Staphylococcus sp.): 2 µg/mL (≈ 1.37 µM) | MIC Staphylococcus aureus (ATCC 29213) (Staphylococcus sp.): 2 µg/mL (≈ 1.37 µM) | MIC Staphylococcus aureus (GC 1131) (Staphylococcus sp.): 4 µg/mL (≈ 2.74 µM) | MIC Staphylococcus aureus (GC 3051) (Staphylococcus sp.): 1 µg/mL (≈ 0.685 µM) | MIC Staphylococcus aureus (GC 3053) (Staphylococcus sp.): 2 µg/mL (≈ 1.37 µM) | MIC Staphylococcus aureus (GC 4541) (Staphylococcus sp.): 1 µg/mL (≈ 0.685 µM) | MIC Staphylococcus aureus (GC 4542) (Staphylococcus sp.): 1 µg/mL (≈ 0.685 µM) | MIC Staphylococcus aureus (GC 4544) (Staphylococcus sp.): 2 µg/mL (≈ 1.37 µM) | MIC Staphylococcus aureus (GC 4545) (Staphylococcus sp.): 2 µg/mL (≈ 1.37 µM) | MIC Staphylococcus aureus-SMITH (GC 4543) (Staphylococcus sp.): 1 µg/mL (≈ 0.685 µM) | MIC Staphylococcus aureus (ATCC 29213) (Staphylococcus sp.; strain ATCC 29213): 2 µg/mL (≈ 1.37 µM) | MIC Staphylococcus aureus (GC 1131) (Staphylococcus sp.; strain GC 1131): 4 µg/mL (≈ 2.74 µM) | MIC Staphylococcus aureus (GC 3051) (Staphylococcus sp.; strain GC 3051): 1 µg/mL (≈ 0.685 µM) | MIC Staphylococcus aureus (GC 3053) (Staphylococcus sp.; strain GC 3053): 2 µg/mL (≈ 1.37 µM) | MIC Staphylococcus aureus (GC 4541) (Staphylococcus sp.; strain GC 4541): 1 µg/mL (≈ 0.685 µM) | MIC Staphylococcus aureus (GC 4542) (Staphylococcus sp.; strain GC 4542): 1 µg/mL (≈ 0.685 µM) | MIC Staphylococcus aureus-SMITH (GC 4543) (Staphylococcus sp.; strain GC 4543): 1 µg/mL (≈ 0.685 µM) | MIC Staphylococcus aureus (GC 4544) (Staphylococcus sp.; strain GC 4544): 2 µg/mL (≈ 1.37 µM) | MIC Staphylococcus aureus (GC 4545) (Staphylococcus sp.; strain GC 4545): 2 µg/mL (≈ 1.37 µM) | MIC Coagulase Negative Staphylococcus (GC 4547) (Staphylococcus sp.; strain GC 4547): 1 µg/mL (≈ 0.685 µM) | MIC Coagulase Negative Staphylococcus (GC 4548) (Staphylococcus sp.; strain GC 4548): 1 µg/mL (≈ 0.685 µM) | MIC Coagulase Negative Staphylococcus (GC 4549) (Staphylococcus sp.; strain GC 4549): 1 µg/mL (≈ 0.685 µM) | MIC Coagulase Negative Staphylococcus (GC 4551) (Staphylococcus sp.; strain GC 4551): 2 µg/mL (≈ 1.37 µM) | MIC Coagulase Negative Staphylococcus (GC 6257) (Staphylococcus sp.; strain GC 6257): 2 µg/mL (≈ 1.37 µM) | MIC Enterococcus avium (GC 4558) (Enterococcus sp.): 2 µg/mL (≈ 1.37 µM) | MIC Enterococcus faecalis (ATCC 29212) (Enterococcus sp.): 4 µg/mL (≈ 2.74 µM) | MIC Enterococcus faecalis (GC 2242) (Enterococcus sp.): 4 µg/mL (≈ 2.74 µM) | MIC Enterococcus faecalis (GC 2691) (Enterococcus sp.): 8 µg/mL (≈ 5.48 µM) | MIC Enterococcus faecalis (GC 3059) (Enterococcus sp.): 4 µg/mL (≈ 2.74 µM) | MIC Enterococcus faecalis (GC 4552) (Enterococcus sp.): 4 µg/mL (≈ 2.74 µM) | MIC Enterococcus faecalis (GC 4553) (Enterococcus sp.): 2 µg/mL (≈ 1.37 µM) | MIC Enterococcus faecalis (GC 4554) (Enterococcus sp.): 4 µg/mL (≈ 2.74 µM) | MIC Enterococcus faecalis (GC 6189) (Enterococcus sp.): 4 µg/mL (≈ 2.74 µM) | MIC Enterococcus faecium (GC 2243) (Enterococcus sp.): 4 µg/mL (≈ 2.74 µM) | MIC Enterococcus faecium (GC 4556) (Enterococcus sp.): 4 µg/mL (≈ 2.74 µM) | MIC Enterococcus faecium (GC 4557) (Enterococcus sp.): 2 µg/mL (≈ 1.37 µM) | MIC Enterococcus faecalis (ATCC 29212) (Enterococcus sp.; strain ATCC 29212): 4 µg/mL (≈ 2.74 µM) | MIC Enterococcus faecium (GC 2243) (Enterococcus sp.; strain GC 2243): 4 µg/mL (≈ 2.74 µM) | MIC Enterococcus faecalis (GC 4552) (Enterococcus sp.; strain GC 4552): 4 µg/mL (≈ 2.74 µM) | MIC Enterococcus faecalis (GC 4553) (Enterococcus sp.; strain GC 4553): 2 µg/mL (≈ 1.37 µM) | MIC Enterococcus faecalis (GC 4554) (Enterococcus sp.; strain GC 4554): 4 µg/mL (≈ 2.74 µM) | MIC Enterococcus faecium (GC 4556) (Enterococcus sp.; strain GC 4556): 4 µg/mL (≈ 2.74 µM) | MIC Enterococcus faecium (GC 4557) (Enterococcus sp.; strain GC 4557): 2 µg/mL (≈ 1.37 µM) | MIC Enterococcus avium (GC 4558) (Enterococcus sp.; strain GC 4558): 2 µg/mL (≈ 1.37 µM) | MIC Enterococcus faecalis (GC 6189) (Enterococcus sp.; strain GC 6189): 4 µg/mL (≈ 2.74 µM) | MIC Enterococcus faecalis (GC 2242) (Enterococcus sp.; inoculum 5×10^5 CFU/mL, strain GC 2242): 4 µg/mL (≈ 2.74 µM) | MIC Enterococcus faecalis (GC 2691) (Enterococcus sp.; inoculum 5×10^5 CFU/mL, strain GC 2691): 8 µg/mL (≈ 5.48 µM) | MIC Enterococcus faecalis (GC 3059) (Enterococcus sp.; inoculum 5×10^5 CFU/mL, strain GC 3059): 4 µg/mL (≈ 2.74 µM) | MIC Streptococcus agalactiae (GC 4564) (Streptococcus sp.): 0.5 µg/mL (≈ 0.343 µM) | MIC Streptococcus pneumoniae (ATCC 6301) (Streptococcus sp.): 0.25 µg/mL (≈ 0.171 µM) | MIC Streptococcus pneumoniae (GC 1894) (Streptococcus sp.): <0.12 µg/mL | MIC Streptococcus pneumoniae (GC 4565) (Streptococcus sp.): 0.25 µg/mL (≈ 0.171 µM) | MIC Streptococcus pyogenes (GC 4563) (Streptococcus sp.): 0.5 µg/mL (≈ 0.343 µM) | MIC Streptococcus pneumoniae (ATCC 6301) (Streptococcus sp.; inoculum 5×10^5 CFU/mL, strain ATCC 6301): 0.25 µg/mL (≈ 0.171 µM) | MIC Streptococcus pneumoniae (GC 1894) (Streptococcus sp.; inoculum 5×10^5 CFU/mL, strain GC 1894): <0.12 µg/mL | MIC Streptococcus pyogenes (GC 4563) (Streptococcus sp.; inoculum 5×10^5 CFU/mL, strain GC 4563): 0.5 µg/mL (≈ 0.343 µM) | MIC Streptococcus agalactiae (GC 4564) (Streptococcus sp.; inoculum 5×10^5 CFU/mL, strain GC 4564): 0.5 µg/mL (≈ 0.343 µM) | MIC Streptococcus pneumoniae (GC 4565) (Streptococcus sp.; inoculum 5×10^5 CFU/mL, strain GC 4565): 0.25 µg/mL (≈ 0.171 µM)
Structure (SMILES): CC(c1ccccc1)C1NC(=O)CNC(=O)C(CO)NC(=O)C(CC2CNC(=N)N2C2OC(CO)C(O)C(O)C2O)NC(=O)C(CC2CNC(=N)N2)NC(=O)C(Cc2ccc(OC3OC(CO)C(OC4OC(CO)C(OCc5ccc(OCc6ccccc6)cc5)C(O)C4O)C(O)C3O)cc2)NC1=O (stereo not shown) [Example 246a]
MIC Staphylococcus haemolyticus (GC 4546) (Staphylococcus sp.): 1 µg/mL (≈ 0.685 µM) | MIC Staphylococcus haemolyticus (GC 4546) (Staphylococcus sp.; strain GC 4546): 1 µg/mL (≈ 0.685 µM)
